Consider two compounds from PMC11247486, “Improving the In Vivo Stability of [^52Mn]Mn(II) Complexes with 18-Membered Macrocyclic Chelators for PET Imaging” (Journal of Medicinal Chemistry, 2024).

Series [1] can be described thus: 1H NMR relaxometry (relaxivity as a function of pH). The format is physicochemical. The following applies: around neutral pH, 61 MHz and 25 °C. The source says: The studies reported by Branco assumed the formation of a protonated [Mn(HL)]^3+ species for the Mn-PYAN complex characterized by protonation constant log KMnLH = 5.19 (KMnLH = [MnHL]/[MnL] × [H^+]).[42] However, our pH-potentiometric data could be fitted very well without considering the formation of protonated species or hydroxo-complexes. In order to confirm that the equilibrium model used to fit the pH-potentiometric data was correct, we measured the relaxivity (r1p) of aqueous solutions of the complexes as a function of pH (Figure 4). Relaxivity measures the ability of a paramagnetic solute to enhance the longitudinal relaxation rate of solvent water molecules, normalized for a 1 mM concentration of the paramagnetic ion.[45] The r1p values measured around neutral pH values (0.83 and 1.40 mM^–1 s^–1 at 61 MHz and 25 °C for Mn-PYAN and Mn-CHXPYAN, respectively) are typical of complexes that lack one or more water molecules in the inner coordination sphere, the observed relaxivity being the result of the outer-sphere contribution.[46] Relaxivity is fairly constant in the pH range of 6–9 but increases below pH ∼ 6 due to complex dissociation, reaching a relaxivity of 6.00 mM^–1 s^–1 at pH 3, 61 MHz, and 25 °C that is characteristic of the [Mn(H2O)6]^2+ complex.[47] The relaxivity profile matches the speciation diagrams calculated using the equilibrium constants obtained by pH potentiometry very well, which provides support for the equilibrium model used to fit the potentiometric data. It is worth noting that complex dissociation takes place at a lower pH for Mn-CHXPYAN than for Mn-PYAN, as expected, considering their pMn values.
The relaxivity values were calculated from the longitudinal relaxation time of H2O protons (T1) measured at 61 MHz on a Stelar relaxometer connected to a Bruker WP80 NMR electromagnet adapted to variable-field measurements (15–80 MHz proton Larmor frequency). […] The longitudinal relaxation time was measured with the “inversion recovery” method (180°–τ–90°) by using 12 different τ values with a typical 90° pulse width of 10.7 μs, 4 scans. […]

For series [2] the following is noted: protonation constant of the complex, KMnLH = [MnHL]/[MnL] × [H^+]; cited from earlier work.

Turning to `[Mn+2].c1cc2nc(c1)CN[C@@H]1CCCC[C@H]1NCc1cccc(n1)CN[C@@H]1CCCC[C@H]1NC2` [Mn-CHXPYAN], the “relaxivity r1p” value in series [1] was found to be 1.40 mM^–1 s^–1.

For the compound `[Mn+2].c1cc2nc(c1)CNCCNCc1cccc(n1)CNCCNC2` [Mn-PYAN], the “relaxivity r1p” value in series [1] was found to be 0.83 mM^–1 s^–1. Further, in series [2], the “log KMnLH” value was 5.19.
